Assay results published in US20250134913A1, “ORAL DOSAGE FORMS OF TRβ AGONIST VK2809 FOR THE TREATMENT OF LIVER DISORDERS AND METHODS OF PREPARING THE SAME” (Viking Therapeutics, Inc., priority 2022, published 2025).
In brackets after ≈: the same amount, converted by molar mass.

How the values were obtained:
Format in all cases: physicochemical
[1] = Open stability of spray dried dispersions by HPLC; conditions: Stored at Room Temp.
Method: The stability samples were tested using H-PLC using the method in Table 4.
The stability samples were tested for assay and related substances. […] This is mainly due to an API process-related impurity.

[2] = Closed stability packaging study of PVP-VA SDDs by HPLC; conditions: Stored at Room Temp.
Method: Chemical stability of PVP-VA-containing SDDs of Compound 1 under closed conditions was evaluated by HPLC using the method provided herein in Table 4.

[3] = physchem
Method: The amorphous solubility of amorphous Compound 1 was determined by slow addition of the API from an organic stock solution into the aqueous medium of interest. When the amorphous solubility was reached, a drug rich phase formed and was measured by detection by scattering of UV/Visible light and/or by dynamic light scattering (DLS).
The solubility of amorphous Compound 1 was evaluated in PBS at pH 6.5 alone and with 0.5% simulated intestinal fluid (SIF). […] The onset of scattering in the SIF containing media occurred after 180-210 μg/mL Compound 1. […] This is consistent with the initial solubility testing where the crystalline solubility in PBS in the absence of bile salts is exceedingly low.

[4] = Equilibrium solubility of crystalline Compound 1 (supernatant concentration after ultracentrifugation); conditions: 37° C.
Description: Experimental values for solubility, listed in Table 2, were obtained by measuring supernatant concentrations after centrifugation at 386,000×g.

[5] = Closed stability packaging study of spray dried dispersions by HPLC; conditions: Stored at Room Temp.
Method: Due to the extensive degradation observed after 2 weeks at 40° C./75% RH open, a closed with desiccant condition stability study was initiated for Compound 1 SDDs. Samples were evaluated for stability at 2 weeks, 6 weeks, and 3 months when stored in 4 mL scintillation vials and sealed in 60 cc HDPE bottles with heat induction sealing and 0.5 g desiccant.
Chemical stability of Compound 1 SDDs after 2 weeks under closed conditions was evaluated by HPLC using the method provided herein in Table 4. […] All SDDs containing cellulosic polymers show the same growth of an impurity after 2 weeks at 40/75 closed. Upon closer inspection, this impurity is present in the in-going API at a level that was below the threshold used for integration. […] Further evidence of unknown degradants that may form during manufacture and co-elute with known synthetic impurities was observed. Closed stability degradation data at two weeks is provided in Table 6, while closed stability degradation data at six weeks is provided in Table 7. Additionally, no changes in particle morphology and crystallinity for the SDDs after 6 weeks at 40° C./75% RH were observed.

[6] = Stability study of tablet formulations; conditions: Stored at Room Temp.
Method: Tablet formulations were subjected to a stability study. Tablets were packaged in heat sealed HDPE bottles with minimal headspace and stored in temperature-controlled stability chambers at 50° C., 40° C., and 25° C., and 5° C. Humidity in the chambers was either controlled or allowed to be at ambient humidity. The conditions are listed for each particular formulation in Table 11 below.

[7] = Gastric-to-intestinal buffer (G-IB) transfer non-sink dissolution test
Method: The SDDs were evaluated in a non-sink dissolution test designed to monitor dissolution rate, as well as inhibition of crystallization, on transfer from simulated gastric to simulated intestinal media. For the gastric-to-intestinal buffer (G-IB) transfer dissolution test, pH 2 (“gastric”; “G”) media was added to each sample at a target dose concentration of 1000 μg Compound 1/mL. After 30 minutes of exposure to gastric media, concentrated simulated intestinal buffer was added to reach a final composition of 0.5% SIF in PBS, pH 6.5 at half the dose concentration (500 μg Compound 1/mL). This dose concentration was selected at twice the estimated amorphous solubility in an attempt to discriminate on dissolution rate and sustainment of supersaturation simultaneously. The concentration was monitored by UV fiber optic probes in situ (stir rate: 100 revolutions per minute) as well as being assessed by either microcentrifugation (15,800×g) or ultracentrifugation (300,000×g). The microcentrifuge separated the precipitate (undissolved drug) and total solubilized drug. Total solubilized drug consists of three solubilized species: freely solubilized drug (“free drug”), drug associated with bile salt micelles (“micelle bound drug”), and drug in small aggregate roughly 50-300 nm in size (“colloidal drug”). The ultracentrifuge further separates the colloidal drug and the supernatant contains only free drug and micelle bound drug. These three species have different activities in vivo and can be used to help differentiate formulations. Free drug is the smallest species and is the only species considered to partition directly into the cell membrane of the epithelium. Micelle bound drug can cross the unstirred mucous boundary layer and source free drug once a concentration gradient has been created by freely solubilized drug being absorbed. Finally, the drug-polymer colloids are a source of rapidly dissolving drug and may, in some cases, penetrate the unstirred mucous boundary layer (Stewart et al. Mol. Pharmaceutics, 2017, 12, 2437-2449)
All SDD formulations containing enteric polymers reached the amorphous solubility in intestinal buffer within 10 minutes. […] The exact reason for this shift is currently unknown. It may be attributable to detector saturation, arising from the undissolved solids, or a specific interaction between the drug and polymer in solution.

Compound 1 Relative abundance [1]: 97.61%
Impurities Relative abundance [1]: 2.47%
Compound 1 Relative abundance [2]: 97.54%
Impurities Relative abundance [2]: 2.33%
solubility ([3]; 37 °C, pH 6.5, fassif, kinetic from dmso stock): 180 to 210 µg/mL (≈ 350 to 408 µM)
Ultracentrifuge Concentration ([4]; 0.01N HCl, 90 min): <0.05 μg Compound 1/mL
Ultracentrifuge Concentration ([4]; 0.01N HCl, 20 hours): <0.05 μg Compound 1/mL
Ultracentrifuge Concentration ([4]; 0.5% Simulated intestinal fluid (SIF) in PBS, pH 6.5, 90 min): 92 μg Compound 1/mL
Ultracentrifuge Concentration ([4]; 0.5% Simulated intestinal fluid (SIF) in PBS, pH 6.5, 20 hours): 87 μg Compound 1/mL
Ultracentrifuge Concentration ([4]; PBS, pH 6.5, 90 min): <0.05 μg Compound 1/mL
Ultracentrifuge Concentration ([4]; PBS, pH 6.5, 20 hours): 0.6 μg Compound 1/mL
Compound 1 Relative abundance ([5]; 2 week analysis): 97.07%
Impurities Relative abundance ([5]; 2 week analysis): 2.95%
Compound 1 Relative abundance ([5]; 6 week analysis): 97.70%
Impurities Relative abundance ([5]; 6 week analysis): 2.33%
Compound 1 Relative abundance ([6]; 2 month analysis): 97.22%
Impurities Relative abundance ([6]; 2 month analysis): 2.78%
Compound 1 Relative abundance ([6]; 3 month analysis): 97.45%
Impurities Relative abundance ([6]; 3 month analysis): 2.55%
Concentration, IB 10 min, micro ([7]; 0.5% SIF in PBS pH 6.5, 10 min, microcentrifuge, dose 500 μg/mL): 39 μg Compound 1/mL
Concentration, IB 10 min, ultra ([7]; 0.5% SIF in PBS pH 6.5, 10 min, ultracentrifuge, dose 500 μg/mL): 49 μg Compound 1/mL
Concentration, IB 90 min, micro ([7]; 0.5% SIF in PBS pH 6.5, 90 min, microcentrifuge, dose 500 μg/mL): 88 μg Compound 1/mL
Concentration, IB 90 min, ultra ([7]; 0.5% SIF in PBS pH 6.5, 90 min, ultracentrifuge, dose 500 μg/mL): 88 μg Compound 1/mL
Concentration, G 20 min, micro ([7]; gastric media pH 2, 20 min, microcentrifuge, dose 1000 μg/mL): 0 μg Compound 1/mL
Structure (SMILES): Cc1cc(OC[P@@]2(=O)OCC[C@@H](c3cccc(Cl)c3)O2)cc(C)c1Cc1ccc(O)c(C(C)C)c1 [Compound 1]
Amorphous solubility behaviour ([3]; pH 6.5): precipitated as soon as the stock solution was introduced to the medium
